The values that follow come from PubChem BioAssay AID179 (DTP/NCI, 2004).

The structures appear in SMILES notation. Where “and” joins values, the source holds several entries; their conditions need not be identical. Equal entries are not always repeated. Calls of active or inactive are those of the source.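 The calls were made as follows: active = compounds giving half or more protection of infected cells from virus-caused growth loss, again on retest; inactive = the rest.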 Where a SMILES comes first, the peptide text is derived from it. [ ]: non-standard residue; d: D form. The star is where a group is joined. ξ: configuration not given here. ξD = NC(CC(=O)O)C(=O)O; Ac3c = NC1(C(=O)O)CC1; Boc = CC(C)(C)OC(=O)*; OtBu = CC(C)(C)O*

This test has as its system CEM cells HIV-1 protection, formazan growth assay. Briefly: NCI AIDS Antiviral Assay. To be noted: for IC50: measured here: growth of uninfected CEM cells. The method, boiled down:
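Soluble formazan readout of cell growth; CEM cells ± HIV-1; 5 drug concs. ≥50% protection → retest; ≥50% again = moderately active; reproducible 100% = confirmed active.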

As to `COc1ccc2c(c1)c(C(=O)O)cc(=O)n2C`, the EC50 is > 200 µM and the IC50 is > 200 µM. Take `CCCCCC=C(c1cc(Cl)c(OC)c(C(=O)NC)c1)c1cc(Cl)c(OC)c(C(=O)NC)c1`: the EC50 is > 38 µM and the IC50 turned out to be 20.4 µM. For `N/C(=N\NS(=O)(=O)c1ccccc1)Oc1ccc(Br)cc1Br`, in that order: > 112 µM and > 112 µM. `CC(=S)N/C=C/c1c(C(=O)O)cc([N+](=O)[O-])cc1[N+](=O)[O-]`: the result was inactive.

For `O=C(CCN(CCO)CCO)Nc1ccc2c(c1)C(=O)c1ccc(NC(=O)CCN(CCO)CCO)cc1C2=O`, the EC50 is > 200 µM and the IC50 was found to be 1.66 µM. The like results for `O=C1CN=C(c2ccccn2)c2cc(Cl)ccc2N1CCO` were, in that order, > 794 µM and 468 µM. In the case of `CN(C)/C=C/c1ccncc1`, the EC50 is > 200 µM and the IC50 worked out at 145 µM. For `O=Nc1ccc2ccccc2c1O`, in that order: > 200 µM and 4.27 µM. The like results for `CC(=O)N(/N=C\c1ccc([N+](=O)[O-])cc1)c1ccccc1` were, in that order, > 126 µM and > 126 µM. For `COC[C@@H]1[C@H]2OC(C)(C)O[C@H]2C(=O)N1C(=O)c1ccc(OC)cc1`, in that order: > 200 µM and > 200 µM. As to `COC12OC3(C4OC41)C(C(=O)O[C@H]3CO[Si](C)(C)C(C)(C)C)C2C(=O)Oc1ccccc1` (stereo not given in full), the EC50 is > 200 µM and the IC50 is > 200 µM. For `COC(=O)C1CCC(=O)C(Sc2ccccc2)C1` (stereo not given), the EC50 was > 97.7 µM and the IC50 is 43.7 µM. The like results for `COC(=O)C1(NC(=O)C(CC(=O)OC(C)(C)C)NC(=O)OC(C)(C)C)CC1` (stereo not given) (Boc-[ξD](OtBu)-[Ac3c]-OMe) were, in that order, > 200 µM and > 200 µM. For `CC(O)CN1C(=O)C2C3C=CC(C3)C2C1=O` (stereo not given), in that order: > 200 µM and > 200 µM. For the compound `CN1C=COC1N=C1CCCCC1` (stereo not given), the EC50 is > 200 µM and the IC50 is > 200 µM. Consider `COc1cnc([C@H]2CCC3[C@@H]4CC=C5C[C@@H](O)CC[C@]5(C)C4CC[C@@]32C)s1` (stereo not given in full), for which the EC50 was > 4.9 µM and the IC50 is > 4.9 µM. Take `CCC/C=C/C=C\C(=O)O[C@@H]1[C@@H](C)[C@]2(O)[C@@H]3C=C(C)C(=O)[C@H]3CC(COC(C)=O)=C[C@H]2[C@@H]2C(C)(C)[C@]12OC(C)=O`: the result was inactive.

On to `Cc1ccc2nc(C=Nc3ccc(Cl)cc3)cc(C)c2c1`, for which the outcome was inactive.

Turning to `Cc1nn(C(=O)c2ccncc2)c2c1C(c1cccc([N+](=O)[O-])c1)SC(N)=N2` (stereo not given), the result was inactive.

For `O=C1OC(Cl)C(N=P(c2ccccc2)(c2ccccc2)c2ccccc2)=C1Cl` (stereo not given), the EC50 is > 12.3 µM and the IC50 is 9.33 µM.

As to `CC(C)C(=O)Oc1cc2c(=O)oc3c(OC(=O)C(C)C)c(OC(=O)C(C)C)cc4c(=O)oc(c1OC(=O)C(C)C)c2c34`, the EC50 is > 50.1 µM and the IC50 is > 50.1 µM. Consider `Nc1nc(=O)n(C2OC(CO)CC2F)cc1Cl` (stereo not given), for which the EC50 is > 191 µM and the IC50 was > 191 µM. In the case of `CC/C=N\N=C(N)N`, the EC50 was > 200 µM and the IC50 is 30.2 µM. For `O=C(O)c1ccc2c(O)c(O)ccc2c1`, in that order: > 77.6 µM and 6.03 µM. For `Cn1nc(Cc2ccc(Cl)cc2)n(N)c1=O`, in that order: > 200 µM and > 200 µM. On to `Cc1cn([C@@H]2C[C@H]2CO)c(=O)[nH]c1=O`, for which the result was inactive. Take `CCCCCCCC(=O)OCC1OC(n2cc(F)c(=O)[nH]c2=O)C(NC(=O)OCc2ccccc2)C(OC(=O)CCCCCCC)C1O` (stereo not given): the EC50 is > 10.7 µM and the IC50 is > 10.7 µM. With `NC(=O)O/N=C/c1ccccn1`, the EC50 is > 200 µM and the half-maximal inhibitory concentration (IC50) was > 200 µM.

`CCC1C(C)C=CN1c1nc(N)nc(NS(=O)(=O)c2cc(C)c(Cl)cc2S)n1` (stereo not given): the EC50 is 129 µM and the IC50 is > 200 µM. The like results for `CC(C)=CC(=O)OC1C2C(C)=CC(O)C(O)C2(C)C2C3(O)OCC24C(CC(=O)OC14)C(C)C3O` (stereo not given) were, in that order, > 2 µM and 0.0912 µM. Take `C#CCN(N=O)C(=O)NC(CCCCNC(=O)OCc1ccccc1)C(=O)OCc1ccccc1` (stereo not given): the EC50 is > 10.7 µM and the half-maximal inhibitory concentration (IC50) was > 10.7 µM. As for `CC(C)(C)N=C(NO)c1ccccc1`, the outcome was inactive. For `Cc1ccc(C2=CSC3=NCCN23)cc1Cl`, the EC50 is > 200 µM and the IC50 was 93.3 µM. Turning to `O=C(NCc1ccccc1)c1cc2cc(O)c(O)cc2cn1`, the EC50 was > 200 µM; the half-maximal inhibitory concentration (IC50) was 5.13 µM and > 8.32 µM. Consider `Cc1cnc2c(c1)C(=O)N(c1ccc(Oc3ccccc3)cc1)S2(=O)=O`, for which the EC50 was > 200 µM and the IC50 was > 200 µM. For the compound `O=C(CSc1nnc(-c2ccc(Cl)cc2)s1)Nc1nccs1`, the EC50 is > 200 µM and the IC50 was > 200 µM.

As for `CNC(=O)c1ccccc1[Se][Se]c1ccccc1C(=O)NC`, the half-maximal effective concentration (EC50) was 3.55 µM and the IC50 turned out to be 11 µM. The like results for `COC1(C)CC2N(C(=O)c3ccccc3)N=C(c3ccccc3)CC2(C)O1` (stereo not given) were, in that order, > 100 µM and > 100 µM.

`C[P+]1(CCc2ccc(Cl)cc2)CC=CC1`: the outcome was inactive. Turning to `CC(C)(C)[Si](C)(C)OC1C(=O)C(CO)OC1n1ccc(=O)[nH]c1=O` (stereo not given), the EC50 was > 200 µM and the IC50 is > 200 µM. With `CCOC(=O)/C(=C/c1ccc([N+](=O)[O-])cc1)N(CC)CC`, the EC50 is > 324 µM and the concentration for half-maximal inhibition (IC50) is > 324 µM. As for `Cn1c(=O)c(NC(=O)C(Cl)(Cl)Cl)nc2ccccc21`, the EC50 is > 93.3 µM and the IC50 is > 93.3 µM. Take `Cc1ccc(S(=O)(=O)N/N=C2\C=CC3(CC2)C(=O)N(I)c2ccccc23)cc1` (stereo not given): the outcome was inactive.

As for `CCOC(C)=Nc1cc(OC)cc2c1NC(=O)CCS2`, the EC50 was > 200 µM and the IC50 is > 200 µM.

With `Cc1ccc(S(=O)(=O)n2cncc2CO)cc1`, the EC50 was > 200 µM and the IC50 is > 200 µM. On to `CO/C(=N\N=C\c1cc(OC)ccc1OC)c1ccncc1`, for which the EC50 is > 24 µM and the IC50 is > 24 µM. Turning to `O=C1c2cc(Cl)ccc2OC2CCON12` (stereo not given), the EC50 was > 200 µM and the IC50 was > 200 µM. For `O=c1[nH]c(-c2ccc([N+](=O)[O-])cc2)nc2ccc(Cl)cc12`, the outcome was inactive.

Regarding `C[C@]12CCc3nn(-c4ccccc4)nc3C1CC[C@@H]1C2CC[C@]2(C)NC(=O)CCC12` (stereo not given in full), the EC50 was > 23.4 µM and the IC50 is > 23.4 µM. With `CC(C)N(C(=O)C12C3C4C1C1C2C3C41C(=O)O)C(C)C` (stereo not given), the EC50 was > 129 µM and the IC50 is > 129 µM. For `O=c1cc2n(c(=O)[nH]1)C1OC(C(O)C1O)[C@H]2CCO` (stereo not given in full), the outcome was inactive.

For `COC(=O)C(CC(=O)c1cc2c(cc1I)OCO2)Cc1cc(OC)c(OC)c(OC)c1I` (stereo not given), the EC50 is > 14.8 µM and the IC50 is > 14.8 µM. Regarding `C1CCCN(N2CCOCC2)CC1`, the EC50 was > 200 µM and the IC50 is > 200 µM. As to `O=c1oc2ccccc2c(O)c1C(C/C(=N/O)c1ccccc1)c1ccccc1` (stereo not given), the EC50 is > 200 µM and the IC50 was found to be 70.8 µM. `COC(=O)c1ccccc1/C=C1\Cc2c(C)cc(C)cc2C1=O`: the outcome was inactive.

Take `CCOC(=O)NC(Nc1ccc(C(=O)OCC)cc1)(C(F)(F)F)C(F)(F)F`: the EC50 is > 200 µM and the IC50 was 17 µM. On to `COc1cc([N+](=O)[O-])c(OC)c2c(Nc3ccc(S(=O)(=O)O)c4cc(S(=O)(=O)O)cc(S(=O)(=O)O)c34)cc(C)nc12`, for which the EC50 was > 200 µM and the IC50 was > 200 µM. For `CN1C(=O)[C@@H]2N(CSC2(C)C)C1=S`, the EC50 is > 200 µM and the IC50 is > 200 µM. Regarding `O=[N+]([O-])c1cccc2nc3ccccc3c(NCCNCCO)c12`, the EC50 was > 2 µM and the IC50 was determined as 0.0316 µM. Turning to `Cc1c(Cl)cccc1NC(=O)CC1C(=O)Nc2ccccc2S1(=O)=O` (stereo not given), the EC50 is > 5.25 µM and the IC50 is > 5.25 µM. `Cn1c(C(=O)/C=C/c2ccc([N+](=O)[O-])cc2)nc2ccccc21`: the EC50 is > 200 µM and the IC50 turned out to be 33.1 µM. For `COc1cc(/C=C2\C(=O)N(Cc3ccccc3)C(c3ccccc3)S2(=O)=O)cc(OC)c1OC` (stereo not given), in that order: > 20 µM and 3.31 µM. The like results for `CC1=C(C)CS(=O)(=O)N(c2ccccc2)C1` were, in that order, > 200 µM and > 200 µM. Turning to `COC(=O)C(Cc1ccccc1)NC(=O)C(CCCN=C(N)N)NC(=O)OCc1ccccc1` (stereo not given), the EC50 is > 200 µM and the IC50 is > 200 µM. Turning to `Clc1cccc(Cl)c1C1ON=C(c2ccccc2)N1C12CC3CC(CC(C3)C1)C2` (stereo not given), the EC50 is > 100 µM and the IC50 amounted to 14.5 µM. For `O=C(Nc1ccc(NC(=O)c2ccc(C3=NCCN3)cc2)cc1)Nc1ccc(C2=NCCN2)cc1`, in that order: > 200 µM and 50.1 µM.

As to `c1csc(-c2ccsc2-c2cccs2)c1`, the EC50 is > 200 µM and the half-maximal inhibitory concentration (IC50) worked out at 97.7 µM. The like results for `COc1cc(-c2cc(=O)c3c(O)c(OC)c(OC)c(OC)c3o2)cc(OC)c1OC` were, in that order, > 70.8 µM and > 70.8 µM. As for `CCOC(=O)c1nc2ccc(Cl)cc2c2c1CCO2`, the EC50 was > 5.25 µM and the IC50 was > 5.25 µM. For `CC12CC(Sc3ccccc3N1)c1ccccc1O2` (stereo not given), the EC50 is > 132 µM and the IC50 amounted to 21.4 µM. The like results for `C/C=C1/CN2CCC34C5=CC(=O)C(c6cc7c(cc6OC)N(C)C6=C(C(=O)OC)CC8(CC)CCCN9CCC67C98)=CC5=NC23CCC1C4C(=O)OC` (stereo not given) were, in that order, > 200 µM and 4.9 µM.

As to `CCCCCCC(=O)N1SC(NC(=O)OC)=Nc2ccccc21`, the EC50 was > 77.6 µM and the 50% inhibitory concentration (IC50) was 10.2 µM. For `CC(=O)OCC1OC(n2ncc(=O)[nH]c2=O)C(OC(C)=O)C1OC(C)=O` (stereo not given), in that order: > 2 µM and 1.05 µM.

A word on the EC50: it is the concentration at which the effect is half-maximal. For orientation: IC50 means the concentration needed to halve the response being measured. Low readings indicate higher potency, high ones lower potency.
